Experiment [1] relates to FADD−/− Jurkat cells. Description: Inhibition of TNF-induced programmed necrosis of FADD deficient Jurkat cells (Cell Titer-Glo viability). It is filed as cell-based. An excerpt:
(§1) The adopted biological assay protocol was: the effect of compounds on programmed necroptosis of TNF-induced FADD (Fas-Associated Death Domain) deficient Jurkat cells and L929 cells.
(§2) In order to verify the inhibitory effect of the compounds of the present invention on programmed cell necrosis at the cellular level, cell types that is closely related to the RIP1 pathway, namely FADD deficient Jurkat cells (human peripheral blood leukemia T cell strain) and L929 cells, were selected. Two different stimulation methods were used: tumor necrosis factor (TNFα) was used alone, or TNFα was used in combination with mitochondria-derived cysteine aspartate activator (SMAC) SM164. Cells viability was calculated by detecting chemiluminescence values, thereby obtaining the biological activity of the compound on the inhibition of programmed cell necrosis.
(§3) Methods: FADD deficient Jurkat cells: FADD deficient Jurkat cells (human peripheral blood leukemia T cell line) were cultured in vitro. After growing to the logarithmic growth phase, the cells were collected, centrifuged at 1000 rpm for 5 min, the supernatant was discarded, and the cell concentration was adjusted to 2.5×10^5/mL. Cells were seeded into 384-well plates, 40 μl per well. 5 μL of SM164 (50 nM) diluted in cell culture medium and 5 μL of each compound were added to the corresponding wells. After pretreatment at 37° C. for 1 h, 5 μL of TNFα (50 ng/mL) diluted in cell culture medium was added to each well of the stimulation group, and 5 μL of the culture medium was added to the control group. The plate was cultured in a cell incubator (37° C., 5% CO2) for 14 h, and […] of Cell Titer-Glo solution was added to each well, then incubated for 30 min at room temperature, and intracellular ATP level was measured by detecting luminescence. The unstimulated DMSO control wells were taken as 100% cell viability. L929 cells: The L929 cells (mouse fibroblasts) were cultured in vitro, digested and diluted to 6.25×10^4/ml, and the cells were seeded into 384-well plates, 40 μl per well. The plate was placed in a cell incubator (37° C., 5% CO2) for 12 hours. 5 μL of SM164 (500 nM) diluted in cell culture medium and 5 μL of each compound were added to the corresponding wells. After pretreatment at 37° C. for 1 h, 5 μL of TNFα (500 ng/mL) diluted in cell culture medium was added to each well of the stimulation group, and 5 μL of the culture medium was added to the control group. After the plate was cultured for 14 h in a cell incubator (37° C., 5% CO2), 15 μl of Cell Titer-Glo solution was added to each well. The plate was incubated at room temperature for 30 min, and intracellular ATP level was measured by detecting luminescence. The unstimulated DMSO control wells were taken as 100% cell viability. EC50 values of the compounds were calculated using Prism Graphpad statistical software.

In experiment [2] the test system is L929 cells. Description: Inhibition of TNF-induced programmed necrosis of L929 cells (Cell Titer-Glo viability). It counts as cell-based, mouse.
From the text: as §1, §2, §3

Setting [3] is: Homo sapiens, Jurkat, FADD−/− Jurkat cells, stimulated with TNFα alone, read-out: EC50 (μM) FADD−/− Jurkat cells (human) TNFα.
Where [4] appears, read: Mus musculus, L929, L929 cells, stimulated with TNFα + SM164, read-out: EC50 (μM) L929 cells (mouse) TNFα + SM164.
Setting [5] is: Mus musculus, L929, L929 cells, stimulated with TNFα alone, read-out: EC50 (μM) L929 cells (mouse) TNFα.
Where [6] appears, read: FADD−/− Jurkat cells, stimulated with TNFα + SM164, read-out: EC50 (μM) FADD−/− Jurkat cells (human) TNFα + SM164.
Setting [7] is: FADD−/− Jurkat cells, stimulated with TNFα alone, read-out: EC50 (μM) FADD−/− Jurkat cells (human) TNFα.
Where [8] appears, read: Homo sapiens, Jurkat, 14 h, FADD−/− Jurkat cells, stimulated with TNFα + SM164, read-out: EC50 (μM) FADD−/− Jurkat cells (human) TNFα + SM164.

Read-outs that look alike come from different tables or passages of the source.

On to `Cn1nnc(C(=O)NCc2ccc(-n3cnc4cc(C#N)ccc43)cc2)c1Cc1ccccc1` [QY-15-59], for which the EC50 in experiment [1] (setting [3]) is 0.00767 nM; in experiment [2] (setting [4]), 0.001 nM; in experiment [2] (setting [5]), 0.001 nM. Besides, the “activity of inhibition of programmed necrosis compared with GSK2982772” value in experiment [1] (human FADD-deficient Jurkat cells, TNFα alone or in combination with SM164) was “stronger activity”.

Consider `COc1ccc2c(c1)ncn2-c1ccc(CNC(=O)c2cnn(C)c2Cc2ccccc2)cc1` [QY-11-102A], for which the EC50 in experiment [1] (setting [6]) turned out to be 0.0649 nM; in experiment [1] (setting [7]), 0.00168 nM; in experiment [2] (setting [4]) it was 0.0793 nM; in experiment [2] (setting [5]), 0.00513 nM.

Regarding `CNC(=O)c1ccc2c(c1)ncn2-c1ccc(CNC(=O)c2cnn(C)c2Cc2ccccc2)cc1` [QY-10-73], the EC50 in experiment [1] (setting [8]) came out at 5.2 nM; in experiment [1] (setting [3]) it was 0.0697 nM; in experiment [2] (setting [4]) it was 76.7 nM; in experiment [2] (setting [5]), 20 nM.

Turning to `Nc1ncnc2c1ncn2-c1ccc(CNC(=O)c2ccc(F)n2Cc2ccccc2)cc1` [ZSQ-21-30], the EC50 in experiment [1] (setting [8]) was 1.6 nM; in experiment [1] (setting [3]), 0.0853 nM; in experiment [2] (setting [4]), 7.41 nM; in experiment [2] (setting [5]), 0.916 nM.

`Nc1ncnc2c1ccn2-c1ccc(CNC(=O)c2n[nH]c(Cc3ccccc3)n2)cc1` [QY-8-60, N-(4-(4-amino-7H-pyrrolo[2,3-d]pyrimidine-7-yl)benzyl)-5-benzyl-1H-1,2,4-triazol-3-carboxamide]: the EC50 in experiment [1] (setting [8]), in experiment [1] (setting [3]), in experiment [2] (setting [4]) and in experiment [2] (setting [5]) was greater than 10000 nM in each case.

Turning to `Cn1nc(C(=O)NCc2ccc(-n3cnc4c(N)ncnc43)cc2)cc1Cc1ccccc1` [QY-8-31], the EC50 in experiment [1] (setting [6]) is 7400 nM; in experiment [1] (setting [7]) it was 1300 nM; in experiment [2] (L929 cells, stimulated with TNFα + SM164, read-out: EC50 (μM) L929 cells (mouse) TNFα + SM164), greater than 10000 nM; in experiment [2] (L929 cells, stimulated with TNFα alone, read-out: EC50 (μM) L929 cells (mouse) TNFα) it was greater than 10000 nM.

With `CCCn1nc(C(=O)NCc2ccc(-n3cnc4cc(C(=O)NC)ccc43)cc2)cc1Cc1ccccc1` [XHJ-4-48], the EC50 was 738 nM in experiment [1] (setting [8]), 109 nM in experiment [1] (setting [3]), greater than 10000 nM in experiment [2] (setting [4]) and 3010 nM in experiment [2] (setting [5]).

Turning to `CNC(=O)c1ccc2c(c1)ncn2-c1ccc(CC(=O)N(O)Cc2ccccc2)cc1` [QY-5-62, 1-(4-(2-(benzyl(hydroxy)amino)-2-oxoethyl)phenyl)-N-methyl-1H-benzo[d]imidazol-5-formamide], the EC50 in experiment [1] (Homo sapiens, Jurkat, 14 h, read-out: EC50 (μM) FADD−/− Jurkat cells (human) TNFα + SM164) was 98 nM; in experiment [1] (Homo sapiens, Jurkat, read-out: EC50 (μM) FADD−/− Jurkat cells (human) TNFα), 4.98 nM; in experiment [2] (setting [4]) it was greater than 10000 nM; in experiment [2] (setting [5]), 3800 nM.

For the compound `Nc1ncnc2c1ncn2-c1ccc(CNC(=O)Cc2cccc(OC(F)(F)F)c2)cc1` [QY-9-70], the EC50 in experiment [1] (setting [8]) was greater than 10000 nM; in experiment [1] (setting [3]) it was 2960 nM; in experiment [2] (setting [4]) it was 6300 nM; in experiment [2] (setting [5]) it was 350 nM.

For `C[C@H](NC(=O)c1c(Cl)nn(C)c1Cc1ccccc1)c1ccc(-n2cnc3c(N)ncnc32)cc1` [QY-13-29], the EC50 in experiment [1] (setting [8]) amounted to 0.318 nM; in experiment [1] (setting [3]) it was 0.0916 nM; in experiment [2] (setting [4]), 0.462 nM; in experiment [2] (setting [5]), 0.317 nM.

Consider `COc1cc2ncnc(-c3ccc(CNC(=O)c4cnn(C)c4Cc4ccccc4)cc3)c2cc1OC` [QY-11-75], for which the EC50 in experiment [1] (setting [8]) was 1500 nM; in experiment [1] (setting [3]) it was 233 nM; in experiment [2] (setting [4]), greater than 10000 nM; in experiment [2] (setting [5]), greater than 10000 nM.

Regarding `COc1ccc2ncn(-c3ccc(CNC(=O)c4cnn(C)c4Cc4ccccc4)cc3)c2c1` [QY-11-102B], the EC50 in experiment [1] (setting [8]) came to 0.306 nM; in experiment [1] (setting [3]) it was 0.0133 nM; in experiment [2] (setting [4]), 0.424 nM; in experiment [2] (setting [5]), 0.0278 nM.

For the compound `Nc1ncnc2c1ccn2-c1ccc(CNC(=O)c2nnn(Cc3ccccc3)n2)cc1` [QY-8-58, N-(4-(4-amino-7H-pyrrolo[2,3-d]pyrimidin-7-yl)benzyl)-2-benzyl-2H-tetrazol-5-carboxamide], the EC50 in experiment [1] (setting [8]) was 577 nM; in experiment [1] (setting [3]), 196 nM; in experiment [2] (setting [4]) it was greater than 10000 nM; in experiment [2] (setting [5]), greater than 10000 nM.

On to `CC(c1ccc(-n2cnc3c(N)ncnc32)cc1)N1CCc2nn(C)c(Cc3ccccc3)c2C1=O` (stereo not shown) [QY-12-90], for which the EC50 in experiment [1] (setting [8]) came out at 0.813 nM; in experiment [1] (setting [3]), 0.13 nM; in experiment [2] (setting [4]), 42.7 nM; in experiment [2] (setting [5]), 2.41 nM.

In the case of `CN(C)CCNC(=O)c1ccc2ncn(-c3ccc(CNC(=O)c4cnn(C)c4Cc4ccccc4)cc3)c2c1` [QY-11-74A], the EC50 is 368 nM in experiment [1] (setting [8]), 53 nM in experiment [1] (setting [3]), greater than 10000 nM in experiment [2] (setting [4]) and greater than 10000 nM in experiment [2] (setting [5]).

Regarding `Nc1ncnc2c1ccn2-c1ccc(CNC(=O)c2cc(Cc3ccccc3)on2)cc1` [QY-8-48], the EC50 in experiment [1] (setting [8]) was greater than 10000 nM; in experiment [1] (setting [3]), 972 nM; in experiment [2] (setting [4]) it was greater than 10000 nM; in experiment [2] (setting [5]), greater than 10000 nM.

For `Cn1ncc(C(=O)NCc2ccc(-c3ccnc4[nH]ccc34)cc2)c1Cc1ccccc1` [QY-11-79], the EC50 in experiment [1] (setting [8]) is 747 nM; in experiment [1] (setting [3]), 152 nM; in experiment [2] (setting [4]) it was greater than 10000 nM; in experiment [2] (setting [5]), greater than 10000 nM.

For `CN1CCN(CCNC(=O)c2ccc3ncn(-c4ccc(CNC(=O)c5cnn(C)c5Cc5ccccc5)cc4)c3c2)CC1` [QY-11-69A], the EC50 in experiment [1] (setting [8]) was 194 nM; in experiment [1] (setting [3]) it was 3 nM; in experiment [2] (setting [4]), greater than 10000 nM; in experiment [2] (setting [5]) it was greater than 10000 nM.

Consider `CNC(=O)c1ccc2c(cnn2-c2ccc(CNC(=O)c3cnn(C)c3Cc3ccccc3)cc2)c1` [QY-11-104], for which the EC50 was determined as 48.4 nM in experiment [1] (setting [8]) and 4.43 nM in experiment [1] (setting [3]).

Regarding `Nc1ncnc2c1ccn2-c1ccc(CNC(=O)c2ncc(Cc3ccccc3)o2)cc1` [QY-8-30, N-(4-(4-amino-7H-pyrrolo[2,3-d]pyrimidine-7-yl)benzyl)-5-benzyloxazol-2-carboxamide], the EC50 is 13 nM in experiment [1] (setting [8]), 11.2 nM in experiment [1] (setting [3]), 6300 nM in experiment [2] (setting [4]) and 829 nM in experiment [2] (setting [5]).

Regarding `CNC(=O)c1ccc2c(c1)ncn2-c1ccc(CNC(=O)c2n[nH]c(Cc3ccccc3)n2)cc1` [ZSQ-13-46], the EC50 in experiment [1] (setting [8]), in experiment [1] (setting [3]), in experiment [2] (setting [4]) and in experiment [2] (setting [5]) was greater than 10000 nM throughout.

As to `N#Cc1ccc(C(=O)NCc2ccc(-n3cnc4c(N)ncnc43)cc2)n1Cc1ccccc1` [QY-12-51], the EC50 stood at 1860 nM in experiment [1] (setting [8]), 214 nM in experiment [1] (setting [3]), 3770 nM in experiment [2] (setting [4]) and 875 nM in experiment [2] (setting [5]).

In the case of `COc1cnc2c(c1)ncn2-c1ccc(CNC(=O)c2nnn(C)c2Cc2ccccc2)cc1` [ET-0934], the EC50 came out at 15.5 nM in experiment [1] (setting [8]), 0.489 nM in experiment [1] (setting [3]), 558 nM in experiment [2] (setting [4]) and 16.6 nM in experiment [2] (setting [5]).

Take `Cn1ncc(C(=O)NC(C)(C)c2ccc(-n3cnc4c(N)ncnc43)cc2)c1Cc1ccccc1` [QY-12-102]: the EC50 came to 28.5 nM in experiment [1] (setting [8]), 7.52 nM in experiment [1] (setting [3]), 6960 nM in experiment [2] (setting [4]) and 550 nM in experiment [2] (setting [5]).

Take `Nc1ncnc2c1ncn2-c1ccc(CNC(=O)c2cncn2Cc2ccccc2)cc1` [ZSQ-21-14]: the EC50 in experiment [1] (setting [8]) was greater than 10000 nM; in experiment [1] (setting [3]), 290 nM.

Take `COc1ccc2c(c1)ncn2-c1ccc(CNC(=O)c2cnn(C)c2Cc2ccccc2)cc1` [QY-12-4]: the EC50 amounted to 128 nM in experiment [1] (setting [6]) and 17.6 nM in experiment [1] (setting [7]).

With `C[C@H](NC(=O)c1nnn(C)c1Cc1ccccc1)c1ccc(-n2cnc3c(N)ncnc32)cc1` [QY-13-50], the EC50 in experiment [1] (setting [8]) and in experiment [1] (setting [3]) was 0.001 nM throughout.

These data come from patent US20230331707A1, “PROGRAMMED CELL NECROSIS INHIBITOR, PREPARATION METHOD THEREFOR, AND USE THEREOF” (Shanghai Institute of Organic Chemistry, Chinese Academy of …, priority 2020, published 2023).
